# In PubChem BioAssay AID588614 (The Scripps Research Institute Molecular Screening Center, 2011):
# The source made the active and inactive calls.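 The calls were made as follows: active = Level of the kinase MAPK1 protein lowered or raised by at least 30% versus solvent-only cells; inactive = change under 30% either way.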
# Columns and labels:
# [1] = biological target: Mitogen-activated protein kinase 1 (Homo sapiens) (UniProt P28482); experiment: total ERK1/2 protein level change, either direction, late-stage follow-up, counter-screen for KLF5 inhibitor project, DLD1 cells, chemiluminescent western blot, powder samples (AID 588614); settings: DLD-1 cells, ERK1/2 western blot, 24 h; at 10 µM; stronger effect = higher value
# Chain of Mitogen-activated protein kinase 1 (Homo sapiens) (P28482 whole entry, looked up): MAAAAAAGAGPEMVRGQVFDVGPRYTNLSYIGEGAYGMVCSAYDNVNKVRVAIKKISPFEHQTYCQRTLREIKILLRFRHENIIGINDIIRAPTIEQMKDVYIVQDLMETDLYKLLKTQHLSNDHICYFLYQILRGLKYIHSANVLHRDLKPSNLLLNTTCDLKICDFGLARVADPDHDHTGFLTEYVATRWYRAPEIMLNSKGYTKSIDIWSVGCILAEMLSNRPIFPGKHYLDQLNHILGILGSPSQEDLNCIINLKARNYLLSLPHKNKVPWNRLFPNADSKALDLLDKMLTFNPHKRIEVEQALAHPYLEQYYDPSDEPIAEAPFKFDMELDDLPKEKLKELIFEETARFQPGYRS
# [2] = test system: DLD-1 cells, ERK1/2 western blot, 24 h; experiment: as above; settings: measured here: ERK1/2 band fold change vs DMSO; at 10 µM
SMILES,inhibition [1],fold change [2]
CN(C(=O)COC(=O)/C=C/c1cccc([N+](=O)[O-])c1)C1CCS(=O)(=O)C1 (stereo unspecified),19.8% (inactive),-1.25
CN(C(=O)CNC(=O)/C=C/c1cccc(Cl)c1)C1CCS(=O)(=O)C1 (stereo unspecified),20.8% (inactive),-1.26
CN(C(=O)CNC(=O)/C=C/c1cccc(Cl)c1)C1CCS(=O)(=O)CC1,21.5% (inactive),-1.27
